Legend:
Carbonic anhydrase 1 = Carbonic anhydrase 1 (Homo sapiens, UniProt P00915); test: Inhibition of human recombinant carbonic anhydrase 1 by stopped flow CO2 hydration method
Carbonic anhydrase 2 = Carbonic anhydrase 2 (Homo sapiens, UniProt P00918); test: Inhibition of human recombinant carbonic anhydrase 2 by stopped flow CO2 hydration method
Carbonic anhydrase 12 = Carbonic anhydrase 12 (Homo sapiens, UniProt O43570); test: Inhibition of human recombinant carbonic anhydrase 12 by stopped flow CO2 hydration method
Carbonic anhydrase 9 = Carbonic anhydrase 9 (Homo sapiens, UniProt Q16790); test: Inhibition of human recombinant carbonic anhydrase 9 by stopped flow CO2 hydration method

Chain of Carbonic anhydrase 1 (P00915 whole entry): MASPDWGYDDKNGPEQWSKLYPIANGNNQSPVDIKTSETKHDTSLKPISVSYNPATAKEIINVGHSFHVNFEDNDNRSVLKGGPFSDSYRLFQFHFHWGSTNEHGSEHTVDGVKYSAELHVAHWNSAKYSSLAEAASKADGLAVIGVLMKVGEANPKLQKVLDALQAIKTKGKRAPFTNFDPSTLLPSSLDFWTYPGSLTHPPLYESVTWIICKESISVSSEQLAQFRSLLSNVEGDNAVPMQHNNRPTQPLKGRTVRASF
Chain of Carbonic anhydrase 12 (O43570 whole entry): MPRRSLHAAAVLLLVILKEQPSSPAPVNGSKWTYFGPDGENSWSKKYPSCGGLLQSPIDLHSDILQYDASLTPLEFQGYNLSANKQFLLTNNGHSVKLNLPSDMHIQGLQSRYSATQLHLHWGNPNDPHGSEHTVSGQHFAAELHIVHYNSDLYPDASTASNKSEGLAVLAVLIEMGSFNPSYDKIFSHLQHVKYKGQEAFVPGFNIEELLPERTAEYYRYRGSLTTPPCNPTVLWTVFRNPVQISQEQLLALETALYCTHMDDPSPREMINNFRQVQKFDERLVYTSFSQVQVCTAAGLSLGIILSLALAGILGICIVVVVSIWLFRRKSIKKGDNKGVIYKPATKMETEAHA

Row | SMILES | Ki (Carbonic anhydrase 1) [µM] | Ki (Carbonic anhydrase 2) [µM] | Ki (Carbonic anhydrase 12) [µM] | Ki (Carbonic anhydrase 9) [µM]
1 | CCOC(=O)CN1C(=O)C=C(C)OS1(=O)=O | > 20 | > 20 | – | 0.047
2 | CC1=CC(=O)N(Cc2cccc([N+](=O)[O-])c2)S(=O)(=O)O1 | > 20 | > 20 | – | 0.267
3 | CC1=CC(OCc2cccc([N+](=O)[O-])c2)=NS(=O)(=O)O1 | > 20 | > 20 | – | > 20
4 | CC1=CC(OCc2ccccc2Br)=NS(=O)(=O)O1 | > 20 | > 20 | – | 0.249
5 | CC1=CC(=O)N(Cc2cccc(Br)c2)S(=O)(=O)O1 | > 20 | > 20 | – | 0.284
6 | CC1=CC(=O)N(Cc2ccccc2F)S(=O)(=O)O1 | > 20 | > 20 | – | 0.285
7 | CC1=CC(=O)N(Cc2cccc(F)c2)S(=O)(=O)O1 | > 20 | > 20 | – | 0.275
8 | CC1=CC(OCc2cccc(F)c2)=NS(=O)(=O)O1 | > 20 | > 20 | – | > 20
9 | CC1=CC(=O)N(Cc2c(F)cccc2F)S(=O)(=O)O1 | > 20 | > 20 | – | > 20
10 | CC1=CC(=O)N(Cc2ccc(C#N)cc2)S(=O)(=O)O1 | > 20 | > 20 | – | 0.309
11 | CC1=CC(=O)N(CC(=O)c2ccccc2)S(=O)(=O)O1 | > 20 | > 20 | – | 0.0057
12 | CC1=CC(OCC(=O)c2ccccc2)=NS(=O)(=O)O1 | > 20 | > 20 | – | 0.0153

Other lines, results leading:

Row | Ki (Carbonic anhydrase 1) [µM] | Ki (Carbonic anhydrase 2) [µM] | Ki (Carbonic anhydrase 12) [µM] | Ki (Carbonic anhydrase 9) [µM] | SMILES
13 | > 20 | > 20 | 0.103 | 0.114 | C=CCN1C(=O)C=C(C)OS1(=O)=O
14 | > 20 | > 20 | – | 0.199 | C=CCOC1=NS(=O)(=O)OC(C)=C1
15 | > 20 | > 20 | – | – | C#CCOC1=NS(=O)(=O)OC(C)=C1
16 | 2.9 | > 20 | – | 0.047 | CC1=CC(OCC#N)=NS(=O)(=O)O1
17 | 15.6 | 2.18 | – | > 20 | CC(=O)CN1C(=O)C=C(C)OS1(=O)=O
18 | 2.49 | > 20 | – | > 20 | CC(=O)COC1=NS(=O)(=O)OC(C)=C1
19 | > 20 | > 20 | – | 0.043 | CCOC(=O)COC1=NS(=O)(=O)OC(C)=C1
20 | > 20 | > 20 | – | 0.041 | CC1=CC(=O)N(Cc2ccccc2[N+](=O)[O-])S(=O)(=O)O1
21 | > 20 | > 20 | – | 0.041 | CC1=CC(OCc2ccccc2[N+](=O)[O-])=NS(=O)(=O)O1
22 | 1.3 | 0.0255 | – | 0.0168 | CC1=CC(=O)N(CC(=O)c2cccc([N+](=O)[O-])c2)S(=O)(=O)O1

From ChEMBL document CHEMBL3352509, “Cyclic tertiary sulfamates: selective inhibition of the tumor-associated carbonic anhydrases IX and XII by N- and O-substituted acesulfame derivatives” (Eur J Med Chem, 2014)
